# In patent publication US12084462B2, “Spiro bicyclic inhibitors of menin-MLL interaction” (Janssen Pharmaceutica NV, priority 2016, dated 2024):
# Columns and labels:
# MV-4-11 = assay: Proliferation assay (spheroid assay) MV-4-11; format: cell-based, human; settings: Homo sapiens, MV4-11, MV-4-11; averaged values; read-out: Spheroid assay MV-4-11 (IC50 (μM))
# Procedure: (§1) The anti-proliferative effect of menin/MLL protein/protein interaction inhibitor test compounds was assessed in human leukemia cell lines. The cell lines MV-4-11 and MOLM14 harbor MLL translocations and express the MLL fusion proteins MLL-AF4 and MLL-AF9, respectively, as well as the wildtype protein from the second allele. […] K562 and KG1 were used as a control cell lines containing two MLL wildtype alleles in order to exclude compounds that display general cytotoxic effects.
# (§2) MV-4-11 and MOLM14 were cultured in RPMI-1640 (Sigma Aldrich) supplemented with 10% fetal bovine serum (HyClone), 2 mM L-glutamine (Sigma Aldrich) and 50 μg/ml gentamycin (Gibco). K562 were propagated in RPMI-1640 (Sigma Aldrich) supplemented with 20% fetal bovine serum (HyClone), 2 mM L-glutamine (Sigma Aldrich) and 50 μg/ml gentamycin (Gibco). KG1 were cultured in Iscove's MDM (Gibco) supplemented with 20% fetal bovine serum (HyClone), 2 mM L-glutamine (Sigma Aldrich) and 50 μg/ml gentamycin (Gibco).
# (§3) In order to assess the anti-proliferative effects, 1,500 MV-4-11, 300 MOLM14, 750 K562 or 1,300 KG1 cells were seeded in 200 μl media per well in 96-well round bottom, ultra-low attachment plates (Costar, catalogue number 7007). Cell seeding numbers were chosen based on growth curves to ensure linear growth throughout the experiment. Test compounds were added at different concentrations and the DMSO content was normalized to 0.3%. Cells were incubated for 8 d at 37° C. and 5% CO2. Spheroid like growth was monitored in real-time by live-cell imaging (IncuCyteZOOM, Essenbio, 4× objective) acquiring one image every four hours for 8 d. Confluence (%) as a measure of spheroid size was determined using an integrated analysis tool.
# (§4) In order to determine the cumulative effect of the test compounds over time, the area under the curve (AUC) in a plot of confluence against time was calculated. Confluence at the beginning of the experiment (t=0) was used as baseline for the AUC calculation.
# (§5) Absolute IC50 values were calculated according to the following procedure: % Control=(AUC sample/AUC control)*100 AUC control=mean AUC of control values (cells without compound/DMSO as vehicle control)
# (§6) A non-linear curve fit was applied using the least squares (ordinary) fit method to the plot of % control versus compound concentration. Based on this, the absolute IC50 value (half maximal inhibitory concentration of the test compound causing an anti-proliferative effect of 50% relative to the vehicle control) was calculated.
# MOLM14 = assay: Proliferation assay (spheroid assay) MOLM14; format: cell-based, human; settings: Homo sapiens, MOLM-14, MOLM14; averaged values; read-out: Spheroid assay MOLM14 (IC50 (μM))
# Procedure: as §1, §2, §3, §4, §5, §6
# menin = biological target: T1, menin (Homo sapiens, UniProt O00255, T541A); assay: Menin/MLL fluorescence polarization (FP) assay; format: binding; settings: averaged values over all measurements; read-out: Menin FP assay (IC50 (μM))
# T1 sequence (O00255 with tags, fused parts or gaps T541A): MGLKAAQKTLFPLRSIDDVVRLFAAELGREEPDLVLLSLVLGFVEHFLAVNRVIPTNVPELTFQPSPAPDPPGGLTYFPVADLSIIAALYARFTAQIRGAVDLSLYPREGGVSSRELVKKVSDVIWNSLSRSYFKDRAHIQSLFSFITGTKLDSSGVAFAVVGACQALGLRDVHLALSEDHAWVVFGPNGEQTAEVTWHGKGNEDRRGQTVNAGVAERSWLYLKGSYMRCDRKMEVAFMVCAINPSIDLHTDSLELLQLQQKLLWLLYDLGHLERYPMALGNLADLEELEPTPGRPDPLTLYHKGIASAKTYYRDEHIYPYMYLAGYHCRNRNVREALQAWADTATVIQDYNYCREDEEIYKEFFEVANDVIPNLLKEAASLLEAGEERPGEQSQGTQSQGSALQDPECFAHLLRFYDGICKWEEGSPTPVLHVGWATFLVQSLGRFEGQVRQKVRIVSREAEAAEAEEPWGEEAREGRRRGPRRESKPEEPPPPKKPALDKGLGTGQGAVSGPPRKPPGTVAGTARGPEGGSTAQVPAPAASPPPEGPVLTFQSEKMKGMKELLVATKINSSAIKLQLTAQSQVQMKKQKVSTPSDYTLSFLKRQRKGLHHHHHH
# Procedure: 1) Menin/MLL Fluorescence Polarization Assay
# To a non-surface binding, black 384-well microtiter plate was added 50 nL 160× test compound in DMSO and 4 μL 2× menin in assay buffer (40 mM Tris·HCl, pH 7.5, 50 mM NaCl, 1 mM DTT and 0.001% Tween 20). After incubation of test compound and menin for 10 min at ambient temperature, 4 μL 2×FITC-MBM1 peptide (FITC-β-alanine-SARWRFPARPGT-NH2 (SEQ ID NO: 2)) in assay buffer was added, the microtiter plate centrifuged at 1000 rpm for 1 min and the assay mixtures incubated for 15 min at ambient temperature. The relative amount of menin·FITC-MBM1 complex present in an assay mixture is determined by measuring the fluorescence polarization (FP) of the FITC label with a BMG Pherastar plate reader (ex. 485 nm/em. 520 nm) at ambient temperature. The final concentrations of reagents in the binding assay are 100 nM menin, 5 nM FITC-MBM1 peptide and 0.625% DMSO in assay buffer. Dose-response titrations of test compounds are conducted using an 11 point, three-fold serial dilution scheme, starting at 31 μM.
# Compound potencies were determined by first calculating % inhibition at each compound concentration according to equation 1: % inhibition=((HC−LC)−(FP^compound−LC))/(HC−LC))*100 (Eqn 1)
# Where LC and HC are the FP values of the assay in the presence or absence of a saturating concentration of a compound that competes with FITC-MBM1 for binding to menin, and FP^compound is the measured FP value in the presence of the test compound. HC and LC FP values represent an average of at least 16 replicates per plate. […] 2) Proliferation Assay
# K562 = assay: Proliferation assay (spheroid assay) K562, control cell line; format: cell-based; settings: Homo sapiens; K562 control cell line; averaged values; read-out: Spheroid assay K562 (IC50 (μM))
# Procedure: as §1, §2, §3, §4, §5, §6
# KG1 = assay: Proliferation assay (spheroid assay) KG1, control cell line; format: cell-based; settings: Homo sapiens, KG-1; KG1 control cell line; averaged values; read-out: Spheroid assay KG1 (IC50 (μM))
# Procedure: as §1, §2, §3, §4, §5, §6
SMILES,IC50 (MV-4-11) [µM],IC50 (MOLM14) [µM],IC50 (menin) [µM],IC50 (K562) [µM],IC50 (KG1) [µM]
"FC(F)(F)Cc1cc2c(N3CCC[C@@]4(CCN(Cc5ccccc5)C4)C3)ncnc2s1 (single isomer, unassigned) [Compound 21b]",4.2,4.6,0.13,> 15,
FC(F)(F)Cc1cc2c(N3CCC4(CN(Cc5ccc6nccn6c5)C4)C3)ncnc2s1 [Compound 6],2.4,10.1,0.24,> 15,
"FC(F)(F)Cc1cc2c(N3CCC[C@]4(CCN(Cc5ccccc5)C4)C3)ncnc2s1 (single isomer, unassigned) [Compound 21a]",6.9,12.1,0.49,> 15,
FC(F)(F)Cc1cc2c(N3CCC4(CN(Cc5ccnc(Cl)n5)C4)C3)ncnc2s1 [Compound 15],14,> 15,0.57,> 15,
O=C([C@@H]1CC2(CC2)CN1)N1CC2(CCN(c3ncnc4sc(CC(F)(F)F)cc34)C2)C1 [Compound 86],2.6,11.3,0.092,> 15,
FC(F)(F)Cc1cc2c(N3CCC4(CN(Cc5cnccn5)C4)C3)ncnc2s1 [Compound 12],> 15,> 15,0.63,> 15,
FC(F)(F)Cc1cc2c(N3CCC4(CN(Cc5ccccc5)C4)C3)ncnc2s1 [Compound 1],3.7,4.6,0.056,> 15,
CC(CN1CC2(CCN(c3ncnc4sc(CC(F)(F)F)cc34)C2)C1)c1ccc(F)cc1 (stereo not shown) [Compound 317],0.77,,,,> 15

# Second part, led by results:
IC50 (MV-4-11) [µM],IC50 (MOLM14) [µM],IC50 (menin) [µM],IC50 (K562) [µM],SMILES,IC50 (KG1) [µM]
0.32,2,,,CC(C)[C@@H](c1cn[nH]c1)N1CC2(CCN(c3ncnc4sc(CC(F)(F)F)cc34)C2)C1 [Compound 245],> 15
0.73,4.2,0.042,> 15,CC(C)CN1CC2(CCN(c3ncnc4sc(CC(F)(F)F)cc34)C2)C1 [Compound 13],
0.78,1.9,,,CC(C)C(Cc1ccccc1)N1CC2(CCN(c3ncnc4sc(CC(F)(F)F)cc34)C2)C1 (stereo not shown) [Compound 182],> 15
0.67,4.6,,,CC(C)C(N1CC2(CCN(c3ncnc4sc(CC(F)(F)F)cc34)C2)C1)C1(F)CNC1 (stereo not shown) [Compound 269],> 15
0.32,1.5,,,CC(C)C(CC1CCNCC1)N1CC2(CCN(c3ncnc4sc(CC(F)(F)F)cc34)C2)C1 (stereo not shown) [Compound 315],> 15
